Peptide text beside a SMILES is read from it.
Key:
[1] = molecular target: Neuronal acetylcholine receptor; alpha3/beta4 (Rattus norvegicus) (UniProt P04757+P12392); assay: Potency index, ratio of [T5A,P60]BuIA to test compound for rat alpha3beta4 nAChR expressed in Xenopus oocytes assessed as fold decrease in presence of acetylcholine by Voltage-clamp recording; type: cell-based; conditions: Oocyte
[2] = molecular target: Nicotinic acetylcholine receptor alpha6/alpha3/beta4 (Rattus norvegicus) (UniProt P04757+P12392+P43143); assay: Potency index, ratio of [T5A,P60]BuIA to test compound for rat alpha6/alpha3beta4 nAChR expressed in Xenopus Oocytes assessed as fold increase in presence of acetylcholine by Voltage-clamp recording; type: cell-based; conditions: Oocyte

## CC(C)[C@H](NC(=O)[C@@H]1CCCN1C(=O)[C@H](CC(N)=O)NC(=O)[C@H](C)NC(=O)[C@H](CS)NC(=O)[C@H](CS)NC(=O)[C@@H](N)CCCNC(=N)N)C(=O)N[C@@H](CS)C(=O)N[C@@H](CC(N)=O)C(=O)NCC(=O)N[C@@H](CCCCN)C(=O)N[C@@H](Cc1cnc[nH]1)C(=O)N[C@@H](CS)C(N)=O (H-RCCANPVCNGKHC-NH2)
[1]
  fold change (FC): 10
[2]
  fold change (FC): 3

— ChEMBL document CHEMBL5316324, “Discovery, Characterization, and Engineering of LvIC, an α4/4-Conotoxin That Selectively Blocks Rat α6/α3β4 Nicotinic Acetylcholine Receptors” (J Med Chem, 2023)
